In PubChem BioAssay AID248 (DTP/NCI, 2004):
“And” between values parts separate entries of the source, which are not always exact repeats. Identical values can stand only once. Inconclusive results and toxic doses are left out. Square brackets hold non-standard residues; d marks the D form. Peptide text beside a SMILES is read from it. * marks the point of attachment. Tos = Cc1ccc(S(=O)(=O)*)cc1; ΔPro = O=C(O)[CH]1C=CCN1

Tested on: L1210 leukemia ip in BDF1 mice, survival T/C
Assay: NCI In Vivo Anticancer Drug Screen. Data for tumor model L1210 Leukemia (intraperitoneal) in B6D2F1 (BDF1) mice
Conditions: endpoint: mean survival time, higher = longer survival
Outline: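 Read-out is survival time, reported as the treated-group measurement over the vehicle-control measurement.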

[1] = dose: 75.0 mg/kg/injection, schedule: Q01DX001 (ip), vehicle: saline
[2] = dose: 400.0 mg/kg/injection, schedule: Q01DX001 (ip), vehicle: saline

## Clc1c(C(Cl)(Cl)Cl)nc2ccccc2c1Cl
dose: 12.5 mg/kg/injection, schedule: Q01DX009 (ip), vehicle: Klucel (hydroxypropylcellulose) (HPC)
  T/C: 115 % of control
dose: 25.0 mg/kg/injection, schedule: Q01DX009 (ip), vehicle: Klucel (hydroxypropylcellulose) (HPC)
  T/C: 107 % of control
dose: 50.0 mg/kg/injection, schedule: Q01DX009 (ip), vehicle: Klucel (hydroxypropylcellulose) (HPC)
  T/C: 86 % of control

## CCCC[n+]1ccc(C(N)=O)cc1
dose: 100.0 mg/kg/injection, schedule: Q04DX003 (ip), vehicle: saline
  T/C: 100 % of control
dose: 200.0 mg/kg/injection, schedule: Q04DX003 (ip), vehicle: saline
  T/C: 100 % of control

## COC(=O)c1nc(-c2ccc3c(n2)C(=O)C(N)=C(OC)C3=O)c(N)c(-c2ccc(OC)c(OC)c2O)c1C
dose: 0.5 mg/kg/injection, schedule: Q01DX015 (ip), vehicle: water
  T/C: 116 % of control
dose: 1.0 mg/kg/injection, schedule: Q01DX001 (ip), vehicle: water
  T/C: 110 % of control
dose: 1.0 mg/kg/injection, schedule: Q01DX015 (ip), vehicle: water
  T/C: 119 % of control
dose: 2.0 mg/kg/injection, schedule: Q01DX001 (ip), vehicle: water
  T/C: 109 % of control
dose: 2.0 mg/kg/injection, schedule: Q01DX015 (ip), vehicle: water
  T/C: 98 % of control
dose: 3.0 mg/kg/injection, schedule: Q01DX001 (ip), vehicle: carboxymethylcellulose (CMC)
  T/C: 104 % of control
dose: 6.0 mg/kg/injection, schedule: Q01DX001 (ip), vehicle: carboxymethylcellulose (CMC)
  T/C: 110 % of control
dose: 12.0 mg/kg/injection, schedule: Q01DX001 (ip), vehicle: carboxymethylcellulose (CMC)
  T/C: 105 % of control
dose: 24.0 mg/kg/injection, schedule: Q01DX001 (ip), vehicle: carboxymethylcellulose (CMC)
  T/C: 104 % of control
dose: 48.0 mg/kg/injection, schedule: Q01DX001 (ip), vehicle: carboxymethylcellulose (CMC)
  T/C: 105 % of control

## Nc1cccc(/C=C/c2ccncc2)c1
dose: 100.0 mg/kg/injection, schedule: Q01DX009 (ip), vehicle: Klucel (hydroxypropylcellulose) (HPC)
  T/C: 97 % of control
dose: 200.0 mg/kg/injection, schedule: Q01DX009 (ip), vehicle: Klucel (hydroxypropylcellulose) (HPC)
  T/C: 94 % of control
dose: 400.0 mg/kg/injection, schedule: Q01DX009 (ip), vehicle: Klucel (hydroxypropylcellulose) (HPC)
  T/C: 95 % of control

## CNC(=O)Oc1cccc(C=O)c1
dose: 100.0 mg/kg/injection, schedule: Q01DX001 (ip), vehicle: other
  T/C: 102 % of control
dose: 200.0 mg/kg/injection, schedule: Q01DX001 (ip), vehicle: other
  T/C: 117 % of control
dose: 400.0 mg/kg/injection, schedule: Q01DX001 (ip), vehicle: other
  T/C: 102 % of control

## CCCCCCCCCN1CCCC(C)C1 (centres undefined)
dose: 12.5 mg/kg/injection, schedule: Q04DX002 (ip), vehicle: Klucel (hydroxypropylcellulose) (HPC)
  T/C: 93 % of control
dose: 25.0 mg/kg/injection, schedule: Q04DX002 (ip), vehicle: Klucel (hydroxypropylcellulose) (HPC)
  T/C: 97 % of control
dose: 50.0 mg/kg/injection, schedule: Q04DX002 (ip), vehicle: Klucel (hydroxypropylcellulose) (HPC)
  T/C: 101 % of control

## CCCCn1ccnc1
dose: 12.5 mg/kg/injection, schedule: Q04DX003 (ip), vehicle: saline
  T/C: 105 % of control
dose: 25.0 mg/kg/injection, schedule: Q04DX003 (ip), vehicle: saline
  T/C: 103 % of control

## O=C(Nc1ccccc1F)Oc1cccc(C(F)(F)F)c1
dose: 25.0 mg/kg/injection, schedule: Q01DX009 (ip), vehicle: saline
  T/C: 103 % of control
dose: 50.0 mg/kg/injection, schedule: Q01DX009 (ip), vehicle: saline
  T/C: 110 % of control
dose: 100.0 mg/kg/injection, schedule: Q01DX009 (ip), vehicle: saline
  T/C: 103 % of control

## CCOC(=O)N/N=C/c1cccc([N+](=O)[O-])c1
[1]
  T/C: 104 % of control
dose: 150.0 mg/kg/injection, schedule: Q01DX001 (ip), vehicle: saline
  T/C: 100 % of control
dose: 300.0 mg/kg/injection, schedule: Q01DX001 (ip), vehicle: saline
  T/C: 101 % of control

## CCN(CC)CCn1c(CC23CC4CC(CC(C4)C2)C3)nc2cc([N+](=O)[O-])ccc21
dose: 100.0 mg/kg/injection, schedule: Q01DX001 (ip), vehicle: Klucel (hydroxypropylcellulose) (HPC)
  T/C: 90 % of control
dose: 200.0 mg/kg/injection, schedule: Q01DX001 (ip), vehicle: Klucel (hydroxypropylcellulose) (HPC)
  T/C: 98 % of control

## COc1ccc(N2C(=O)CC(Cl)C2=O)cc1 (centres undefined)
dose: 22.0 mg/kg/injection, schedule: Q04DX003 (ip), vehicle: Klucel (hydroxypropylcellulose) (HPC)
  T/C: 105 % of control
dose: 44.0 mg/kg/injection, schedule: Q04DX003 (ip), vehicle: Klucel (hydroxypropylcellulose) (HPC)
  T/C: 97 % of control
dose: 87.5 mg/kg/injection, schedule: Q04DX003 (ip), vehicle: saline with Tween-80
  T/C: 103 % of control
dose: 88.0 mg/kg/injection, schedule: Q04DX003 (ip), vehicle: Klucel (hydroxypropylcellulose) (HPC)
  T/C: 111 % of control

## COC(=O)C1C=CCN1C(=O)C(Cc1ccccc1)NS(=O)(=O)c1ccc(C)cc1 (stereo not drawn) (Tos-Phe-[ΔPro]-OMe; configuration not given here)
dose: 50.0 mg/kg/injection, schedule: Q01DX005 (ip), vehicle: saline
  T/C: 96 % of control
dose: 100.0 mg/kg/injection, schedule: Q01DX005 (ip), vehicle: saline
  T/C: 107 % of control
dose: 200.0 mg/kg/injection, schedule: Q01DX005 (ip), vehicle: saline
  T/C: 105 % of control

## NS(=O)(=O)c1nc[nH]c1[N+](=O)[O-]
dose: 100.0 mg/kg/injection, schedule: Q01DX009 (ip), vehicle: acetone
  T/C: 92 % of control
dose: 200.0 mg/kg/injection, schedule: Q01DX009 (ip), vehicle: acetone
  T/C: 90 % of control

## Nc1nc(SSc2nc(N)nc3c2ncn3C2CC(O)C(CO)O2)c2ncn(C3CC(O)C(CO)O3)c2n1 (centres undefined)
dose: 1.0 mg/kg/injection, schedule: Q01DX009 (ip), vehicle: saline
  T/C: 212 % of control
dose: 2.0 mg/kg/injection, schedule: Q01DX009 (ip), vehicle: saline
  T/C: 223 % of control
[1]
  T/C: 100 % of control
dose: 119.0 mg/kg/injection, schedule: Q01DX009 (ip), vehicle: saline
  T/C: 118 % of control
dose: 178.0 mg/kg/injection, schedule: Q01DX009 (ip), vehicle: saline
  T/C: 116 % of control
dose: 267.0 mg/kg/injection, schedule: Q01DX001 (ip), vehicle: saline
  T/C: 168 % of control
dose: 267.0 mg/kg/injection, schedule: Q01DX009 (ip), vehicle: saline
  T/C: 88 % of control
[2]
  T/C: 157 % of control and 178 % of control
dose: 600.0 mg/kg/injection, schedule: Q01DX001 (ip), vehicle: saline
  T/C: 201 % of control
dose: 31.3 micrograms/kg/injection, schedule: Q01DX009 (ip), vehicle: saline
  T/C: 96 % of control
dose: 62.5 micrograms/kg/injection, schedule: Q01DX009 (ip), vehicle: saline
  T/C: 109 % of control
dose: 125.0 micrograms/kg/injection, schedule: Q01DX009 (ip), vehicle: saline
  T/C: 112 % of control
dose: 250.0 micrograms/kg/injection, schedule: Q01DX009 (ip), vehicle: saline
  T/C: 109 % of control

## CC(C)=CCCC(C)C1CCC2C3CC=C4CC(O)CCC4(C)C3CCC12C (centres undefined)
dose: 100.0 mg/kg/injection, schedule: Q01DX001 (ip), vehicle: saline with Tween-80
  T/C: 91 % of control
dose: 200.0 mg/kg/injection, schedule: Q01DX001 (ip), vehicle: saline with Tween-80
  T/C: 95 % of control
dose: 400.0 mg/kg/injection, schedule: Q01DX001 (ip), vehicle: saline with Tween-80
  T/C: 95 % of control

## CCCCCCCCCCCCCCCCOP(=O)(O)OCCCCCCCCCCCCCCCC
dose: 50.0 mg/kg/injection, schedule: Q01DX009 (ip), vehicle: saline with Tween-80
  T/C: 98 % of control
dose: 100.0 mg/kg/injection, schedule: Q01DX009 (ip), vehicle: saline with Tween-80
  T/C: 91 % of control
dose: 100.0 mg/kg/injection, schedule: Q04DX003 (ip), vehicle: saline with Tween-80
  T/C: 105 % of control
dose: 200.0 mg/kg/injection, schedule: Q01DX009 (ip), vehicle: saline with Tween-80
  T/C: 89 % of control
dose: 200.0 mg/kg/injection, schedule: Q04DX003 (ip), vehicle: saline with Tween-80
  T/C: 90 % of control
dose: 400.0 mg/kg/injection, schedule: Q01DX009 (ip), vehicle: saline with Tween-80
  T/C: 93 % of control
dose: 400.0 mg/kg/injection, schedule: Q04DX003 (ip), vehicle: saline with Tween-80
  T/C: 95 % of control

## CC(C)=CCNC12CC3CC(CC(C3)C1)C2
dose: 5.0 mg/kg/injection, schedule: Q01DX001 (ip), vehicle: saline
  T/C: 101 % of control
dose: 10.0 mg/kg/injection, schedule: Q01DX001 (ip), vehicle: saline
  T/C: 106 % of control
dose: 20.0 mg/kg/injection, schedule: Q01DX001 (ip), vehicle: saline
  T/C: 108 % of control
dose: 40.0 mg/kg/injection, schedule: Q01DX001 (ip), vehicle: saline
  T/C: 107 % of control
dose: 80.0 mg/kg/injection, schedule: Q01DX001 (ip), vehicle: saline
  T/C: 104 % of control

## Clc1cccc(N2CCN(c3c4c(nc5ccccc35)CCCCC4)CC2)c1
dose: 100.0 mg/kg/injection, schedule: Q01DX001 (ip), vehicle: saline
  T/C: 93 % of control
dose: 200.0 mg/kg/injection, schedule: Q01DX001 (ip), vehicle: saline
  T/C: 88 % of control
[2]
  T/C: 90 % of control
